Laboratory results from article PMC6705415 (Nature structural & molecular biology, 2019).
Changes are numbered by the printed parent chain.

How the values were obtained:
[1] = test system: hENT1 Gly154 mutated to serine; settings: Gly154 to serine mutation in hENT1 versus wild type; cited from earlier work
[2] = target: T1, hENT1 Met33Ile (hENT1cryst background) (Homo sapiens, UniProt Q99808, DEL243-274/L168F/M33I/N288K/P175A); test: Cold dilazep displacement of 3H-NBMPR; format: binding; settings: Met33Ile relative to hENT1cryst; displacement of 100 nM 3H-NBMPR
T1 sequence (Q99808 with tags, fused parts or gaps M33I/L168F/P175A/DEL243-274/N288K): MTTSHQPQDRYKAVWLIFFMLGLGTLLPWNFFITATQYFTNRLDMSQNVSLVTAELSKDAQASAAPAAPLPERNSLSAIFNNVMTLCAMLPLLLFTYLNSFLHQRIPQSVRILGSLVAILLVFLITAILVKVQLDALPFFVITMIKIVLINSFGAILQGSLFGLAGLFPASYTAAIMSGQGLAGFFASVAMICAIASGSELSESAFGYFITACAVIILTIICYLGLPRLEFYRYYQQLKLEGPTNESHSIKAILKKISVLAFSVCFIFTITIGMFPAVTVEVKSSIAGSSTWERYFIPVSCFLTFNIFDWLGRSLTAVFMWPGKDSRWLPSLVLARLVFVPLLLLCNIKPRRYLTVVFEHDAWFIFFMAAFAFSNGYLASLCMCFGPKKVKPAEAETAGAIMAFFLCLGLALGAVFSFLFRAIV

[3] = target: T2, hENT1 Phe307Tyr (hENT1cryst background) (Homo sapiens, UniProt Q99808, DEL243-274/F307Y/L168F/N288K/P175A); test: Cold dilazep displacement of 3H-NBMPR; format: binding; settings: Phe307Tyr relative to hENT1cryst; displacement of 100 nM 3H-NBMPR
T2 sequence (Q99808 with tags, fused parts or gaps L168F/P175A/DEL243-274/N288K/F307Y): T1 sequence (Q99808 with tags, fused parts or gaps M33I/L168F/P175A/DEL243-274/N288K) with I33M, F275Y

[4] = target: T3, hENT1 Phe307Ala (hENT1cryst background) (Homo sapiens, UniProt Q99808, DEL243-274/F307A/L168F/N288K/P175A); test: Cold dilazep displacement of 3H-NBMPR; format: binding; settings: Phe307Ala relative to hENT1cryst; displacement of 100 nM 3H-NBMPR
T3 sequence (Q99808 with tags, fused parts or gaps L168F/P175A/DEL243-274/N288K/F307A): T1 sequence (Q99808 with tags, fused parts or gaps M33I/L168F/P175A/DEL243-274/N288K) with I33M, F275A

increase in apparent Kd for dilazep [2]	decrease in apparent Kd for dilazep [3]	increase in apparent Kd for dilazep [4]	Compound	decrease in NBMPR inhibitory potency [1]
			O=[N+]([O-])c1ccc(CSc2ncnc3c2ncn3[C@@H]2O[C@H](CO)[C@@H](O)[C@H]2O)cc1 [NBMPR, S-(4-Nitrobenzyl)-6-thioinosine]	~ 2,500 fold
~ 3 fold	~ 4 fold	~ 90 fold	COc1cc(C(=O)OCCCN2CCCN(CCCOC(=O)c3cc(OC)c(OC)c(OC)c3)CC2)cc(OC)c1OC [dilazep]	
